{
  "source": "patent US20260027162A1",
  "about": "“MUCISPIRILLUM COMPOSITIONS AND CANCER TREATMENT METHODS THEREOF” (PRESIDENT AND FELLOWS OF HARVARD COLLEGE, priority 2022, published 2026)",
  "test_system": "human NKT cells",
  "experiment": "XCL1 secretion from human NKT cells (ELISA)",
  "assay_type": "cell-based",
  "settings": "human NKT cell, FIG. 18",
  "description": "Briefly, to generate human NKT cells the buffy coats from human donors' peripheral blood were obtained from RESEARCH BLOOD COMPONENTS LLC and separated using differential centrifugation on a FICOLL density gradient. Magnetically Isolated CD14^neg cells were cultured with 10 U/ml rhIL-2 for 5 days. Then, Vα24^+ hNKT cells were magnetically isolated and incubated for 2 days with mitomycin C-treated human dendritic cells loaded with α-galactosylceramide (α-GalCer)+20 U/ml rhIL-2. Then, the cells were harvested and further expanded for 10 days in complete RPMI medium+20 U/ml rhIL-2, with medium replacement every 2 days. Finally, the purity of Vα24Jα18^+ CD3^+ human NKT cells was estimated using flow cytometry (˜99%) and cells were frozen in complete RPMI medium+10% dimethyl sulfoxide (DMSO) at 5×10^6 cells per vial. For assaying the effect of M. schaedleri supernatant on human NKT cells, frozen cells were thawed and cultured in complete RPMI medium+rhIL-2 at cell density of 200,000 cells per well in a 96-well plate. The cells were treated with either sterile mBHI or M. schaedleri CDM at 20% volume per volume (v/v) for 16 h and then the culture supernatant was collected. As a positive control for activation, anti-human CD3 was used to stimulate the NKT cells. XCL1 concentration was measured using ONESTEP HUMAN XCL1 ELISA (ABCAM) according to the manufacturer's instructions. […]",
  "data": [
    {"compound": "O=C(O)c1cccnc1", "note": "[Pool 3, nicotinic acid]", "values": [
      {"measurement": "NKT XCL1 production, metabolite pools", "value": "activity above that of the medium control"}
    ]}
  ]
}
